# From patent publication EP2926811A1, “ARTEMETHER-CONTAINING PHARMACEUTICAL COMPOSITION, PREPARATION, AND USE THEREOF” (Kunming Pharmaceutical Corp., priority 2012, dated 2014)
# Read-outs that look alike come from different tables or passages of the source.
# How the values were obtained:
# Format in all cases: cell-based
# [1] = test system: K562 cells; test: modified MTT method, proliferation of K562 cells; conditions: Homo sapiens, read-out: IC50 on the growth of K562 cells
# Procedure: (§1) Five test concentrations 2, 10, 50, 250 and 500 µM were set for each of five derivatives of artemisinin, artemether drug substance, artemisinin, dihydroartemisinin, artesunate were dissolved with dimethyl sulfoxide (DMSO), while the lyophilized powder of artemether was dissolved with normal saline (N.S.), followed by addition of a certain amount of RPMI 1640 complete culture solution to formulate a high-concentration solution, and each of the low-concentration solutions was formulated by proportionate dilution from the high-concentration solution.
# (§2) The concentrations of DMSO contained in the solutions at the two relatively high concentrations 500 and 250 µM for the artemether drug substance, artemisinin, dihydroartemisinin, artesunate, used as solvent controls, were formulated with […] culture solution, at which time the test concentrations of DMSO were 1% and 0.5%. The concentrations of the excipients contained in the solutions at the two relatively high concentrations 500 and 250 µM for the preparation of lyophilized powder of artemether were used as solvent controls.
# (§3) The positive control was an anti-cancer drug adriamycin (ADM), which was set at three test concentrations (final concentrations) of 0.1, 1 and 10 µg/ml. To ADM stock solution (1 mg/ml) a certain amount of PRMI 1640 complete culture solution was added, to formulate a high-concentration solution, and each of the low-concentration solutions were formulated by proportionate dilutions from the high-concentration solution.
# (§4) HL-60: (human promyelocytic leukemia cell line); K562 (human chronic myelocytic leukemia cell line); HT-29 (human colon cancer cell line); PC-3 (human prostate cancer cell line); A549 (human non-small cell lung cancer cell line); MKN-28 (human gastric cancer cell line); Hep2 (human laryngeal cancer cell line), all of which were purchased from Cell Bank of Shanghai Institutes for Biological Sciences, the Chinese Academy of Sciences.
# (§5) Influence of the five test samples on the proliferation of 7 human tumor cell lines was determined via a modified MTT method.
# (§6) Cells in logarithmic growth phase were taken, adjusted to a certain concentration and then added into a 96 well culture plate. After culture of adherent cells for a period until adherence, the test samples were added; and for suspension cells, the test samples were added after inoculation. 5 test concentrations 2, 10, 50, 250 and 500 µM were set, with 3 parallel wells for each concentration, 10 µl/well; the solvent controls were 0.5% and 1% of isovolumetric DMSO, and the positive controls was ADM at 3 concentrations 0.1, 1 and 10 µg/ml. The samples were loaded followed by culture for a period of time in an incubator at 37°C, 5% CO2, followed by addition of MTT (5 mg/ml) at 20 µl/well, and continued to be cultured for a period of time and added with a three-combined solution [10% SDS - 5% isobutanol - 0.012 mol/L HCl (W/V/V)]. After dissolving in uniformity, it was continued to be placed in the incubator at 37°C, 5% CO2 for a period of time, and the OD value of each well was determined under a wavelength of 570 nm with a microplate reader, according to which the results were calculated.
# (§7) The cellular proliferation inhibition rate was calculated in accordance with the following equation: Inhibition rate (%) = (OD valuecontrol well-OD valuesample well)/OD valuecontrol well × 100% [formula]
# (§8) When the inhibition rate of DMSO on cells was more than 15%, calculation was carried out using the following equation: Inhibition rate (%) = (OD valuesolvent group-OD valueadministered well)/OD valuesolvent group × 100% [formula]
# (§9) The inhibition rate was calculated by using Microsoft Excel 2003, and median inhibitory concentration IC50 was calculated with a LOGIT method, which was used as an indicator for judging the inhibitory capability.
# [2] = test system: HL-60 cells; test: modified MTT method, proliferation of HL-60 cells; conditions: Homo sapiens, read-out: IC50 on the growth of HL-60 cells
# Procedure: as §1, §2, §3, §4, §5, §6, §7, §8, §9
# [3] = test system: A549 cells; test: modified MTT method, proliferation of A549 cells; conditions: Homo sapiens, read-out: IC50 on the growth of A549 cells
# Procedure: as §1, §2, §3, §4, §5, §6, §7, §8, §9
# [4] = test system: HT-29 cells; test: modified MTT method, proliferation of HT-29 cells; conditions: Homo sapiens
# Procedure: as §1, §2, §3, §4, §5, §6, §7, §8, §9
# (§10) According to the results of preliminary screening, further experiments were adjusted such that more sensitive cell lines were screened out. […]
# [5] = test system: PC-3 cells; test: modified MTT method, proliferation of PC-3 cells; conditions: Homo sapiens, read-out: IC50 on the growth of PC-3 cells
# Procedure: as §1, §2, §3, §4, §5, §6, §7, §8, §9
# [6] = test system: MKN-28 cells; test: modified MTT method, proliferation of MKN-28 cells; conditions: Homo sapiens, MKN-28, 72 h, secondary screening
# Procedure: as §1, §2, §3, §4, §5, §6, §7, §8, §9, §10
# [7] = test system: Hep2 cells; test: modified MTT method, proliferation of Hep2 cells; conditions: Homo sapiens, HEp-2, 72 h, secondary screening
# Procedure: as §1, §2, §3, §4, §5, §6, §7, §8, §9, §10
# [8] = HT-29, 24 h, preliminary screening, Batch 1, 24 h, read-out: IC50 on the growth of HT-29 cells
# [9] = HT-29, 24 h, preliminary screening, Batch 2, 24 h, read-out: IC50 on the growth of HT-29 cells
# [10] = HT-29, 48 h, preliminary screening, Batch 1, 48 h, read-out: IC50 on the growth of HT-29 cells
# [11] = HT-29, 48 h, preliminary screening, Batch 2, 48 h, read-out: IC50 on the growth of HT-29 cells
# [12] = HT-29, 72 h, preliminary screening, Batch 1, 72 h, read-out: IC50 on the growth of HT-29 cells
# [13] = HT-29, 72 h, preliminary screening, Batch 2, 72 h, read-out: IC50 on the growth of HT-29 cells
# [14] = HT-29, 72 h, secondary screening, 72 h, Batch 1, read-out: IC50 on the growth of HT-29 cells (72 h)
# [15] = HT-29, 72 h, secondary screening, 72 h, Batch 2, read-out: IC50 on the growth of HT-29 cells (72 h)
# [16] = HT-29, 72 h, secondary screening, 72 h, Batch 3, read-out: IC50 on the growth of HT-29 cells (72 h)
# [17] = HT-29, 72 h, secondary screening, 72 h, average, read-out: IC50 on the growth of HT-29 cells (72 h)
# [18] = Average, read-out: IC50 on the growth of MKN-28 cells (72 h)
# [19] = Batch 1, read-out: IC50 on the growth of MKN-28 cells (72 h)
# [20] = Batch 2, read-out: IC50 on the growth of MKN-28 cells (72 h)
# [21] = Batch 3, read-out: IC50 on the growth of MKN-28 cells (72 h)
# [22] = Batch 1, read-out: IC50 on the growth of Hep2 cells (72 h)
# [23] = Batch 2, read-out: IC50 on the growth of Hep2 cells (72 h)
# [24] = Batch 3, read-out: IC50 on the growth of Hep2 cells (72 h)
# [25] = average, read-out: IC50 on the growth of Hep2 cells (72 h)
smiles,measurement,setting,value
"COc1cccc2c1C(=O)c1c(O)c3c(c(O)c1C2=O)C[C@@](O)(C(=O)CO)C[C@@H]3O[C@H]1C[C@H](N)[C@H](O)[C@H](C)O1 [ADM, adriamycin]",IC50,"[1]; K562, 24 h, Batch 1, 24 h",7.09 µM
same,IC50,"[1]; K562, 24 h, Batch 2, 24 h",5.76 µM
same,IC50,"[1]; K562, 24 h, Batch 3, 24 h",2.59 µM
same,IC50,"[1]; K562, 48 h, Batch 1, 48 h",1.9 µM
same,IC50,"[1]; K562, 48 h, Batch 2, 48 h",0.24 µM
same,IC50,"[1]; K562, 48 h, Batch 3, 48 h",1.69 µM
same,IC50,"[1]; K562, 72 h, Batch 1, 72 h",0.17 µM
same,IC50,"[1]; K562, 72 h, Batch 2, 72 h",0.00993 µM
same,IC50,"[1]; K562, 72 h, Batch 3, 72 h",0.74 µM
same,IC50,"[2]; HL-60, 24 h, Batch 1, 24 h",9.24 µM
same,IC50,"[2]; HL-60, 24 h, Batch 2, 24 h",4.19 µM
same,IC50,"[2]; HL-60, 48 h, Batch 1, 48 h",1.72 µM
same,IC50,"[2]; HL-60, 48 h, Batch 2, 48 h",0.16 µM
same,IC50,"[2]; HL-60, 72 h, Batch 1, 72 h",0.78 µM
same,IC50,"[2]; HL-60, 72 h, Batch 2, 72 h",0.57 µM
same,IC50,"[3]; A549, 24 h, Batch 1, 24 h",38.8 µM
same,IC50,"[3]; A549, 24 h, Batch 2, 24 h",> 100 µM
same,IC50,"[3]; A549, 48 h, Batch 1, 48 h",10.7 µM
same,IC50,"[3]; A549, 48 h, Batch 2, 48 h",0.62 µM
same,IC50,"[3]; A549, 72 h, Batch 1, 72 h",0.76 µM
same,IC50,"[3]; A549, 72 h, Batch 2, 72 h",0.19 µM
same,IC50,[4]; [8],2.28 µM
same,IC50,[4]; [9],3.81 µM
same,IC50,[4]; [10],0.28 µM
same,IC50,[4]; [11],0.59 µM
same,IC50,[4]; [12],0.057 µM
same,IC50,[4]; [13],0.11 µM
same,IC50,[4]; [14],0.11 µM
same,IC50,[4]; [15],0.19 µM
same,IC50,[4]; [16],0.12 µM
same,IC50,[4]; [17],0.11 µM
same,IC50,"[5]; PC-3, 24 h, Batch 1, 24 h",33 µM
same,IC50,"[5]; PC-3, 24 h, Batch 2, 24 h",47.8 µM
same,IC50,"[5]; PC-3, 48 h, Batch 1, 48 h",7.6 µM
same,IC50,"[5]; PC-3, 48 h, Batch 2, 48 h",9.62 µM
same,IC50,"[5]; PC-3, 72 h, Batch 1, 72 h",3.16 µM
same,IC50,"[5]; PC-3, 72 h, Batch 2, 72 h",3.74 µM
same,IC50,[6]; [18],0.51 µM
same,IC50,[6]; [19],0.52 µM
same,IC50,[6]; [20],0.53 µM
same,IC50,[6]; [21],0.47 µM
same,IC50,[7]; [22],0.41 µM
same,IC50,[7]; [23],0.26 µM
same,IC50,[7]; [24],1 µM
same,IC50,[7]; [25],0.51 µM
C[C@H]1[C@@H](O)O[C@@H]2O[C@@]3(C)CC[C@H]4[C@H](C)CC[C@@H]1[C@@]24OO3 [dihydroartemisinin],IC50,"[1]; K562, 24 h, Batch 1, 24 h",> 1000 µM
same,IC50,"[1]; K562, 24 h, Batch 2, 24 h",144 µM
same,IC50,"[1]; K562, 24 h, Batch 3, 24 h",146 µM
same,IC50,"[1]; K562, 48 h, Batch 1, 48 h",997 µM
same,IC50,"[1]; K562, 48 h, Batch 2, 48 h",28 µM
same,IC50,"[1]; K562, 48 h, Batch 3, 48 h",80.7 µM
same,IC50,"[1]; K562, 72 h, Batch 1, 72 h",492 µM
same,IC50,"[1]; K562, 72 h, Batch 2, 72 h",44.8 µM
same,IC50,"[1]; K562, 72 h, Batch 3, 72 h",60.5 µM
same,IC50,"[2]; HL-60, 24 h, Batch 1, 24 h",> 1000 µM
same,IC50,"[2]; HL-60, 24 h, Batch 2, 24 h",74.4 µM
same,IC50,"[2]; HL-60, 48 h, Batch 1, 48 h",> 1000 µM
same,IC50,"[2]; HL-60, 48 h, Batch 2, 48 h",16.3 µM
same,IC50,"[2]; HL-60, 72 h, Batch 1, 72 h",> 1000 µM
same,IC50,"[2]; HL-60, 72 h, Batch 2, 72 h",116 µM
same,IC50,"[3]; A549, 24 h, Batch 1, 24 h",> 1000 µM
same,IC50,"[3]; A549, 24 h, Batch 2, 24 h",935 µM
same,IC50,"[3]; A549, 48 h, Batch 1, 48 h",> 1000 µM
same,IC50,"[3]; A549, 48 h, Batch 2, 48 h",221 µM
same,IC50,"[3]; A549, 72 h, Batch 1, 72 h",> 1000 µM
same,IC50,"[3]; A549, 72 h, Batch 2, 72 h",192 µM
same,IC50,[4]; [8],288 µM
same,IC50,[4]; [9],280 µM
same,IC50,[4]; [10],337 µM
same,IC50,[4]; [11],433 µM
same,IC50,[4]; [12],160 µM
same,IC50,[4]; [13],258 µM
same,IC50,[4]; [14],236 µM
same,IC50,[4]; [15],173 µM
same,IC50,[4]; [16],148 µM
same,IC50,[4]; [17],143 µM
same,IC50,"[5]; PC-3, 24 h, Batch 1, 24 h",660 µM
same,IC50,"[5]; PC-3, 24 h, Batch 2, 24 h",> 1000 µM
same,IC50,"[5]; PC-3, 48 h, Batch 1, 48 h",> 1000 µM
same,IC50,"[5]; PC-3, 48 h, Batch 2, 48 h",> 1000 µM
same,IC50,"[5]; PC-3, 72 h, Batch 1, 72 h",230 µM
same,IC50,"[5]; PC-3, 72 h, Batch 2, 72 h",> 1000 µM
same,IC50,[6]; [18],16.2 µM
same,IC50,[6]; [19],15.1 µM
same,IC50,[6]; [20],17.1 µM
same,IC50,[6]; [21],16.5 µM
same,IC50,[7]; [22],114 µM
same,IC50,[7]; [23],88.2 µM
same,IC50,[7]; [24],126 µM
same,IC50,[7]; [25],92 µM
